PubChem BioAssay (NCI)
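In this assay, cells in 96-well plates receive the compound at five concentrations for 48 hours. Endpoints are linearly interpolated between the surrounding concentrations. TGI marks complete inhibition of growth.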

Experiments:
Assay in all cases: NCI-60 cell line screen, 48 h
[1] = tested on: DU-145 prostate
[2] = tested on: BT-549 breast
[3] = tested on: SK-MEL-5 melanoma
[4] = tested on: A549 NSCLC
[5] = tested on: KM12 colon
[6] = tested on: OVCAR-5 ovarian
[7] = tested on: HCC-2998 colon
[8] = tested on: SF-295 CNS
[9] = tested on: SK-MEL-2 melanoma
[10] = tested on: HT29 colon
[11] = tested on: SK-MEL-28 melanoma
[12] = tested on: HL-60(TB) leukemia
[13] = tested on: HOP-62 NSCLC
[14] = tested on: U251 CNS
[15] = tested on: MDA-MB-231 breast
[16] = tested on: PC-3 prostate
[17] = tested on: CAKI-1 renal
[18] = tested on: ACHN renal
[19] = tested on: UO-31 renal
[20] = tested on: NCI/ADR-RES ovarian
[21] = tested on: TK-10 renal
[22] = tested on: MDA-N
[23] = tested on: HCT-116 colon
[24] = tested on: NCI-H226 lung
[25] = tested on: A498 renal
[26] = tested on: SNB-75 CNS
[27] = tested on: SK-OV-3 ovarian
[28] = tested on: OVCAR-4 ovarian
[29] = tested on: MALME-3M melanoma
[30] = tested on: T-47D breast
[31] = tested on: MDA-MB-435
[32] = tested on: SNB-19 CNS
[33] = tested on: K-562 leukemia
[34] = tested on: HCT-15 colon
[35] = tested on: COLO 205 colon
[36] = tested on: OVCAR-3 ovarian
[37] = tested on: EKVX NSCLC
[38] = tested on: IGROV1 ovarian
[39] = tested on: NCI-H23 lung
[40] = tested on: MCF7 breast
[41] = tested on: RXF 393 renal
[42] = tested on: CCRF-CEM leukemia
[43] = tested on: HOP-92 NSCLC
[44] = tested on: SF-539 CNS
[45] = tested on: SR leukemia
[46] = tested on: NCI-H522 lung
[47] = tested on: MOLT-4 leukemia
[48] = tested on: SF-268 CNS
[49] = tested on: UACC-62 melanoma
[50] = tested on: UACC-257 melanoma
[51] = tested on: OVCAR-8 ovarian
[52] = tested on: SW-620 colon
[53] = tested on: RPMI-8226 leukemia
[54] = tested on: SN12C renal
[55] = tested on: 786-0 renal
[56] = tested on: NCI-H460 lung
[57] = tested on: M14 melanoma
[58] = tested on: LOX IMVI melanoma
[59] = tested on: HS 578T breast

In the case of `N#CCCN(CCN(C(=O)Nc1ccccc1)c1ccccc1)C(=O)Nc1ccccc1`, the TGI [1] is reported as over 100 µM, the TGI [2] is reported as over 100 µM and the TGI [3] is reported as over 100 µM. It also gave a TGI [4] of over 100 µM, a TGI [5] of over 100 µM and a TGI [6] of over 100 µM. The TGI [7] was over 100 µM, the TGI [8] was over 100 µM and the TGI [9] was over 100 µM. It also gave a TGI [10] of over 100 µM, a TGI [11] of over 100 µM and a TGI [12] of 34.7 µM. It also gave a TGI [13] of over 100 µM, a TGI [14] of over 100 µM and a TGI [15] of over 100 µM. For the same compound, the TGI [16] was over 100 µM, the TGI [17] was over 63.1 µM and the TGI [18] was over 100 µM. For the same compound, the TGI [19] was over 100 µM, the TGI [20] was over 100 µM and the TGI [21] was over 100 µM. For the same compound, the TGI [22] was over 100 µM, the TGI [23] was over 100 µM and the TGI [24] was over 100 µM. The TGI [25] was over 100 µM, the TGI [26] was over 100 µM and the TGI [27] was over 100 µM. It also gave a TGI [28] of over 100 µM, a TGI [29] of over 100 µM and a TGI [30] of over 100 µM. The TGI [31] was over 100 µM, the TGI [32] was over 100 µM and the TGI [33] was over 92.1 µM. The TGI [34] was over 100 µM, the TGI [35] was over 100 µM and the TGI [36] was over 100 µM. For the same compound, the TGI [37] was over 100 µM, the TGI [38] was over 100 µM and the TGI [39] was over 100 µM. It also gave a TGI [40] of over 100 µM, a TGI [41] of over 90.1 µM and a TGI [42] of 47.7 µM. It also gave a TGI [43] of over 100 µM, a TGI [44] of over 100 µM and a TGI [45] of over 100 µM. For the same compound, the TGI [46] was over 100 µM, the TGI [47] was over 84.5 µM and the TGI [48] was over 100 µM. The TGI [49] was over 100 µM, the TGI [50] was over 100 µM and the TGI [51] was over 100 µM. It also gave a TGI [52] of over 100 µM, a TGI [53] of over 69.2 µM and a TGI [54] of over 100 µM. For the same compound, the TGI [55] was over 100 µM, the TGI [56] was over 100 µM and the TGI [57] was over 100 µM. The TGI [58] was over 100 µM.

`Nc1nc(Cl)c2nnn(CC3CCC(CO)C3)c2n1` (stereo unspecified) showed a TGI [1] of over 100 µM, a TGI [3] of over 100 µM and a TGI [4] of over 100 µM. It also gave a TGI [5] of over 100 µM, a TGI [6] of over 100 µM and a TGI [7] of over 100 µM. It also gave a TGI [8] of over 100 µM, a TGI [9] of over 100 µM and a TGI [11] of over 100 µM. It also gave a TGI [13] of over 100 µM, a TGI [14] of over 100 µM and a TGI [15] of over 100 µM. It also gave a TGI [16] of over 100 µM, a TGI [17] of over 100 µM and a TGI [18] of over 100 µM. The TGI [19] was over 100 µM, the TGI [20] was over 100 µM and the TGI [21] was over 100 µM. It also gave a TGI [22] of over 100 µM, a TGI [23] of over 100 µM and a TGI [24] of over 100 µM. The TGI [25] was over 100 µM, the TGI [26] was over 100 µM and the TGI [27] was over 100 µM. It also gave a TGI [28] of over 100 µM, a TGI [30] of over 100 µM and a TGI [31] of over 100 µM. The TGI [32] was over 100 µM, the TGI [33] was over 100 µM and the TGI [34] was over 100 µM. It also gave a TGI [35] of over 100 µM, a TGI [36] of over 100 µM and a TGI [37] of over 100 µM. The TGI [40] was over 100 µM, the TGI [41] was over 100 µM and the TGI [42] was over 100 µM. For the same compound, the TGI [43] was over 100 µM, the TGI [44] was over 100 µM and the TGI [48] was over 100 µM. For the same compound, the TGI [49] was over 100 µM, the TGI [50] was over 100 µM and the TGI [52] was over 100 µM. It also gave a TGI [53] of over 100 µM, a TGI [54] of over 100 µM and a TGI [55] of over 100 µM. The TGI [57] was over 100 µM, the TGI [59] was over 100 µM and the TGI [58] was over 100 µM.
